Measured values as given in the supplement of paper PMC11451515.

Tested on: SEM cells
Assay: cell viability relative to DMSO control; higher = less cytotoxic
Conditions: 48 h
Outline: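 In 1536-well plates, 5 μl of leukemia cells were seeded per well: 500 cells/well for NOMO1 or SEM and 1000 cells/well for P12-Ichikawa. Each line had first been adapted for at least four passages in each medium. Library compounds in DMSO were pin-dosed at 11 threefold concentrations between 47 μM and 0.79 nM, and CellTiter-Glo One luminescence was read after 48 h at 37°C. Viability is a per-plate percentage relative to DMSO wells, with cell-free wells as background.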

[1] = HPLM + 10% dialyzed FBS, 0.000781 µM
[2] = HPLM + 10% dialyzed FBS, 0.00234 µM
[3] = HPLM + 10% dialyzed FBS, 0.00702 µM
[4] = HPLM + 10% dialyzed FBS, 0.0211 µM
[5] = HPLM + 10% dialyzed FBS, 0.0632 µM
[6] = HPLM + 10% dialyzed FBS, 0.19 µM
[7] = HPLM + 10% dialyzed FBS, 0.569 µM
[8] = HPLM + 10% dialyzed FBS, 1.71 µM
[9] = HPLM + 10% dialyzed FBS, 5.12 µM
[10] = HPLM + 10% dialyzed FBS, 15.4 µM
[11] = HPLM + 10% dialyzed FBS, 46.1 µM
[12] = RPMI 5 mM glucose + 10% FBS, 0.000781 µM
[13] = RPMI 5 mM glucose + 10% FBS, 0.00234 µM
[14] = RPMI 5 mM glucose + 10% FBS, 0.00702 µM
[15] = RPMI 5 mM glucose + 10% FBS, 0.0211 µM
[16] = RPMI 5 mM glucose + 10% FBS, 0.0632 µM
[17] = RPMI 5 mM glucose + 10% FBS, 0.19 µM
[18] = RPMI 5 mM glucose + 10% FBS, 0.569 µM
[19] = RPMI 5 mM glucose + 10% FBS, 1.71 µM
[20] = RPMI 5 mM glucose + 10% FBS, 5.12 µM
[21] = RPMI 5 mM glucose + 10% FBS, 15.4 µM
[22] = RPMI 5 mM glucose + 10% FBS, 46.1 µM
[23] = RPMI 5 mM glucose + 10% dialyzed FBS, 0.000781 µM
[24] = RPMI 5 mM glucose + 10% dialyzed FBS, 0.00234 µM
[25] = RPMI 5 mM glucose + 10% dialyzed FBS, 0.00702 µM
[26] = RPMI 5 mM glucose + 10% dialyzed FBS, 0.0211 µM
[27] = RPMI 5 mM glucose + 10% dialyzed FBS, 0.0632 µM
[28] = RPMI 5 mM glucose + 10% dialyzed FBS, 0.19 µM
[29] = RPMI 5 mM glucose + 10% dialyzed FBS, 0.569 µM
[30] = RPMI 5 mM glucose + 10% dialyzed FBS, 1.71 µM
[31] = RPMI 5 mM glucose + 10% dialyzed FBS, 5.12 µM
[32] = RPMI 5 mM glucose + 10% dialyzed FBS, 15.4 µM
[33] = RPMI 5 mM glucose + 10% dialyzed FBS, 46.1 µM

Compound	cell viability [1]	cell viability [2]	cell viability [3]	cell viability [4]	cell viability [5]	cell viability [6]	cell viability [7]	cell viability [8]	cell viability [9]	cell viability [10]	cell viability [11]	cell viability [12]	cell viability [13]	cell viability [14]	cell viability [15]	cell viability [16]	cell viability [17]	cell viability [18]	cell viability [19]	cell viability [20]	cell viability [21]	cell viability [22]	cell viability [23]	cell viability [24]	cell viability [25]	cell viability [26]	cell viability [27]	cell viability [28]	cell viability [29]	cell viability [30]	cell viability [31]	cell viability [32]	cell viability [33]
Cn1cnc2c(F)c(Nc3ccc(Br)cc3F)c(C(=O)NOCCO)cc21	95.3%	84.2%	93.4%	22%	105%	89.5%	80%	85.4%	87.9%	87.7%	74.3%	85.3%	86.1%	96.9%	16%	94.1%	108%	89.2%	85.9%	87.1%	70.9%	61.6%	88.1%	85.5%	107%	19.6%	87.5%	91.5%	83.1%	70.6%	76.2%	66%	52.8%
S=C(NCc1ccc2c(c1)OCO2)N1CCN(c2ncnc3c2oc2ccccc23)CC1	116%	120%	123%	100%	129%	23.2%	124%	124%	93.7%	79.4%	16.7%												104%	103%	121%	127%	134%	126%	134%	135%	62.9%	64.5%	17.5%
CC[C@]12CC[C@H]3[C@@H](CCC/4=C/C(=O)CC[C@H]34)[C@@H]1\C=C/[C@@]2(O)C#C	78.9%	96.1%	106%	102%	111%	108%	115%	109%	127%	110%	121%	110%	107%	119%	123%	131%	117%	106%	124%	116%	125%	116%	113%	110%	108%	115%	116%	120%	109%	118%	115%	118%	118%
CNCC(O)c1ccc(O)cc1 (centres undefined)	59.8%	87.8%	85.6%	80.2%	90.1%	95.6%	87.9%	86.8%	95.3%	99.5%	93.6%	96.6%	95.4%	128%	103%	112%	105%	113%	104%	122%	114%	111%	75.6%	97.3%	85.7%	93.5%	101%	108%	100%	99.4%	114%	99.8%	87.1%
C[S+](=O)([O-])Nc1ccc([N+](=O)[O-])cc1Oc1ccccc1	95.8%	103%	99.8%	104%	117%	121%	107%	104%	107%	109%	62.9%	88.4%	111%	98.6%	90.5%	106%	95.7%	108%	105%	103%	82.7%	17.2%	103%	112%	124%	110%	109%	102%	95.8%	106%	106%	104%	54.3%
N[S+]([O-])(=O)C1=CC=C(NC/2=C/C(=O)C3=CC=CC=C3C2=O)C=C1	97.3%	106%	109%	108%	115%	110%	123%	110%	82.6%	97.8%	71.3%	96.2%	103%	99.4%	98.6%	87.5%	83.9%	92.2%	92.5%	53.4%	57.2%	46.3%	122%	74.4%	108%	105%	106%	120%	103%	108%	71.3%	85.3%	50.7%
CCOC(=O)N1CCN(/[N+]([O-])=N/Oc2ccc([N+](=O)[O-])cc2C#N)CC1	85%	88.8%	86.5%	91.4%	120%	106%	109%	25.2%	15.3%	13.6%	9.4%	104%	108%	106%	109%	110%	125%	114%	16%	10.6%	10.3%	7.12%	106%	92.3%	108%	107%	114%	117%	104%	22.4%	12.1%	12.2%	9.24%
COc1ccccc1OCC(O)COC(N)=O (centres undefined)	84%	102%	104%	110%	118%	114%	109%	106%	119%	111%	89.1%	94.6%	110%	85.6%	110%	104%	95.8%	112%	106%	120%	97.6%	99.4%	108%	109%	103%	123%	106%	121%	136%	93.8%	126%	118%	112%
C[C@]12COC(=O)C[C@@H]1CC[C@@H]1[C@@H]2CC[C@@]2(C)[C@H]1CC[C@]2(C)O	96.4%	97.7%	95.7%	105%	94%	93.3%	85.5%	96.6%	101%	86.3%	88.4%	105%	110%	104%	100%	106%	106%	105%	101%	95.9%	90%	78.4%	98.2%	109%	104%	111%	121%	109%	101%	92%	101%	89.5%	78.6%
O=C(C=CC#Cc1cccc(N[S+](=O)([O-])c2ccccc2)c1)NO	119%	103%	113%	119%	122%	109%	107%	87%	13.1%	4.27%	4.02%	112%	80.6%	103%	111%	109%	89.3%	101%	84.4%	10.9%	4.75%	4.28%	105%	94.8%	102%	100%	120%	117%	115%	80.2%	7.4%	5.47%	5.05%
O=C(O)C1(Cc2cccc(Nc3nccs3)n2)CCC(Oc2cccc(Cl)c2F)CC1 (centres undefined)	86.3%	108%	93.3%	68.4%	104%	101%	108%	75.6%	42%	28.9%	18.9%	97%	88.9%	101%	87.4%	114%	96.5%	102%	66.5%	43.1%	22.2%	12.7%	81.9%	86.5%	97.5%	92.6%	95.1%	111%	111%	68.7%	43.2%	25.2%	17.1%
c1ccc(CCCN2CCN(CCOC(c3ccccc3)c3ccccc3)CC2)cc1	27.6%	98.3%	99.1%	103%	97.9%	104%	87.4%	99.9%	87.1%	33.9%	44.6%	69.2%	106%	104%	98%	91.7%	85.9%	102%	89%	91%	19.2%	61.8%	78.9%	103%	114%	100%	99.4%	96%	73%	96.5%	92.5%	23%	50.5%
C[C@H]1C[C@@H]2[C@H](CC[C@@]3(C)[C@H]2CC[C@]3(OC(C)=O)C(C)=O)[C@@]\4(C)CCC(=O)\C=C14	64.9%	101%	79.8%	87%	88.5%	85.1%	92.9%	87.6%	85.3%	88.9%	101%	75%	89.9%	97.5%	92.2%	105%	96.2%	84.5%	96.7%	91.6%	80.8%	85.9%	75.4%	96%	77.3%	105%	101%	94.2%	78.7%	94.1%	88%	80.1%	88.9%
FC1=C(C=C(C\C2=N\NC(=O)C3=C2C=CC=C3)C=C1)C(=O)N4CCN(CC4)C(=O)C5CC5	80.9%	84%	100%	99%	97%	94.9%	85.7%	91.6%	86.5%	19.7%	41.1%	94.7%	95.8%	103%	109%	107%	105%	92.8%	87.1%	76.3%	13.1%	26.5%	71.6%	79%	92%	70.5%	77.7%	81.3%	74.8%	78.2%	62.4%	17.5%	24.8%
COC(=O)C[C@](O)(CCCC(C)(C)O)C(=O)O[C@@H]1C(OC)=CC23CCCN2CCc2cc4c(cc2[C@H]13)OCO4 (some centres undefined)	106%	103%	108%	108%	105%	120%	119%	109%	94.5%	92.5%	102%	98.4%	101%	106%	98.1%	111%	111%	95.9%	89.6%	84.3%	96.9%	93.3%	104%	100%	104%	106%	97.2%	103%	105%	97.5%	99.7%	99.9%	102%
